“Also recorded” adds a separate entry of the source. Positions of bridges follow the written chain, without caps; N, C: chain ends. Residues, ends and D or L forms follow the SMILES beside them. No end group written: not given here.
Legend:
Erk½ = experiment: Effect of pharmacological inhibitors on INGAP-induced Erk½ phosphorylation in RIN-m5F cells; type: cell-based, rat; details: for Effect of inhibitor on INGAP-induced Erk½ phosphorylation: inhibitor pretreatment, 10 min growth factor
Experimental: 1×10^6 cells were plated in 60 mm plates for 48 hours followed by a 24-h starvation in serum-free medium. Prior to addition of growth factors, cells were pretreated for 30-40 min with the indicated inhibitors, except for Pertussis Toxin (Ptx)(24 h pretreatment). After a 10 min treatment with growth factors, cells were placed on ice and lysed, as described in the Experimental Procedures. Blots (30 μg of proteins) were incubated with Phospho-Erk½ antibody (or with total Erk antibody after stripping) and developed using ECL reagent. Quantification of Erk phosphorylation relative to total Erk and time 0 min control (=1, shown as a dotted line) was performed as described above. (A): Inhibitors of GPCR (Ptx, 100 ng/m1), adenylate cyclase (SQ22536, 250 μM) and PKA (PKi, 100nM; H89, 1μM). (B): inhibitors of PKC (Bis, 1 μM), PI3K (Wm, 100 nM), Src(PP2, 100nM), EGFR(AG1478, 100nM) and Raf Inhibitor l(R-1, 100nM), or DMSO as a solvent (*: p<0.05).
(§1) To investigate signaling events implicated in INGAP induced proliferation, we employed specific pharmacological inhibitors of Raf (Raf inhibitor 1), PI3 K (wortmannin), PKC (Bis), PKA (H89, PKi), Adenylate cyclase (SQ22536), Src (PP2) and EGFR (AG1478). In addition, Pertussis toxin (Ptx) was used to examine whether INGAP actions were mediated by a GPCR. Effectiveness of these inhibitors was judged by Erk½ phosphorylation after 10 min of treatment with INGAP or EGF or Ex-4, and by BrdU incorporation after 24 h.

RIN-m5F cells [1] = experiment: Effect of pharmacological inhibitors on INGAP-induced BrdU incorporation in RIN-m5F cells; type: cell-based, rat; details: inhibitor pretreatment, 24 h
Experimental: Cells were plated in chamber slides and subjected to 30−40 min pretreatment with the indicated inhibitors prior to the addition of growth factors and incubated for 24 h. […] BrdU was added for the last three hours of treatment followed by fixation in Methanol and immunostaining for BrdU. Data are presented as a ratio of BrdU(+) cells (%) in treated versus untreated control. Results are means±S.E. of three independent experiments (*: p<0.05, †: p<0.001).
as §1

[2] = Peptide stability in RPMI-1640 medium with 25% FBS, HPLC; type: in vitro ADME; details: for Comparative peptide stability in FBS: 50 μM peptide; for half-life at 50 μM: bovine
Experimental: (§2) 50 μM peptides were incubated in RPMI-1640 medium with 25% FBS for the times indicated. Following ethanol precipitation of serum proteins, samples were analyzed by HPLC. To compare dynamics of peptide degradation HPLC profiles were superimposed as shown.
(§3) 50 μM INGAP-PC and INGAP 19C were incubated in RPMI-1640 medium with 25% FBS for the times indicated. Following ethanol precipitation of serum proteins, samples were analyzed by HPLC. To compare dynamics of peptide degradation, HPLC profiles were superimposed as shown.
as §2, with “Degradation profiles of INGAP-P and INGAP-19 peptides in presence of serum were determined (FIG. 20). 50” for “50”
as §3, with “Time-course studies of in vitro incubation of INGAP-PC and INGAP-19C peptides in FBS were also performed (FIG. 21). 50” for “50”

[3] = Stability of 5-FAM labeled INGAP analogs in serum and pancreas of non-diabetic mice after IP injection; type: in vivo; details: 500 mg/mouse IP, 10 min to 2 h
Experimental: Prior to the start of the STZ experiments, we tested the stability of INGAP analogs in the serum of non-diabetic mice by injecting 5-FAM labeled INGAP analogs (custom made at Canpeptide, Pointe Claire) at […] IP . The analogs were FAM labeled to determine the post-injection time needed for the peptides to reach the pancreas and to potentially identify the target cells. Mice were sacrificed after 10 min, 30 min, 1 h and 2 h (three mice per group) and blood and tissue samples were collected for processing. Blood serum was precipitated with methanol (1:3) to remove serum proteins and the resulting supernatant was analyzed by HPLC to detect presence of INGAP peptides.
These experiments need to be repeated by using cryosections vs paraffin section to minimize a potential loss of the fluorescence.

[4] = test system: STZ (streptozotocin)-induced diabetes; parameters: species or system mice; details: mouse, in vivo, ip
Experimental: In this part of the study, we used a well established model of STZ (streptozotocin)-induced diabetes, resulting in a substantial destruction of beta cell mass. Previous studies conducted in our lab have shown islet neogenic effects of INGAP-peptide (15 L) and INGAP protein after the 8-week administration daily.
Referring to FIG. 42, C57BL/6 J mice (Charles River) 20-25 g, were rendered diabetic by a single injection of 150 mg/kg of STZ. The animals with blood glycemias of 15-30 mM after 7 days were used for the experiment. At 7 days, mice were randomized into 5 groups, 10 mice per group, equal representation of each glycemia level, (average glycemia per group being 24.4+0.0167 mM) and were treated with […] of one of the analogs, IP, daily for 10 weeks. Blood glycemia values were taken weekly from the tip of the tail (fasting and/or non-fasting). The weight of animals was also taken weekly.
After 10 weeks of treatment, the animals were sacrificed and the pancreata were weighed and processed for RNA extraction (still ongoing) and Immunocytochemistry.

RIN-m5F cells [5] = experiment: BrdU incorporation (proliferation) in RIN-m5F cells, 24 h; type: cell-based, rat; details: positive control
Experimental: (A): INGAP increased BrdU incorporation. RIN-m5F cells were treated with indicated amounts of INGAP-P or r-INGAP for 24 h in chamber slides. Exendin 4 (Ex4) and EGF were used as controls. 50 μM BrdU was added for the last three hours of treatment followed by fixation in methanol and immunostaining for BrdU. Data are presented as a ratio of BrdU(+) cells (%) in INGAP-treated to untreated control. Results are means±S.E. of three independent experiments (*: p<0.05, §: p<0.001, compared to untreated control). (B): INGAP induced phosphorylation of Erk½ in RIN-m5F. RIN-m5F cells (1×10^6) plated in 60 mm tissue culture plates were treated with INGAP for the times indicated. Blots (30 μg protein) were probed with anti-Erk½-Phospho (Thr202/Tyr204) antibody, followed by stripping/reprobing with anti-total Erk½ antibody (Cell Signaling) and quantified by densitometry, using ImageJ software. (C): Quantification of relative Erk½ phosphorylation measured as a ratio of Phospho-Erk½ to total Erk½ and shown as a Fold Change relative to the 0 min time point. […]
Cells plated in 8-well or 4-well chamber slides (5×10^4 or 1×10^5 cells per well) were treated for 24 h with INGAP, EGF or Ex 4, as described above, and 50 μM BrdU was added during the last 3 hours of treatment. […] BrdU-positive and negative nuclei were counted (total 200 per well) and the percentage of BrdU-positive nuclei was calculated (FIG. 36).

Akt = Akt phosphorylation in RIN-m5F cells; type: cell-based, rat; details: time course

Molecule: COc1cc2ncnc(Nc3cccc(Cl)c3)c2cc1OC [AG1478]
- Effect of inhibitor on INGAP-induced Erk½ phosphorylation (Erk½): not affected

Molecule: O=S(=O)(NCCNC/C=C/c1ccc(Br)cc1)c1cccc2cnccc12 [H89]
- Effect of inhibitor on BrdU incorporation induced by growth factors (RIN-m5F cells [1]): reduced BrdU incorporation in rINGAP treated cells

Molecule: CC[C@H](C)[C@@H]1NC(=O)[C@H](Cc2c[nH]c3ccccc23)NC(=O)[C@H]([C@@H](C)CC)NC(=O)[C@@H](N)CSSC[C@@H](C(=O)O)NC(=O)[C@H](Cc2c[nH]c3ccccc23)NC(=O)CNC(=O)[C@H](CO)NC(=O)CNC(=O)[C@H](CC(N)=O)NC(=O)[C@@H]2CCCN2C(=O)[C@H](CC(C)C)NC(=O)[C@H]([C@@H](C)O)NC(=O)CNC(=O)[C@H](Cc2c[nH]cn2)NC(=O)[C@H](CO)NC(=O)[C@@H]2CCCN2C(=O)[C@H](CC(=O)O)NC(=O)[C@H](Cc2c[nH]cn2)NC(=O)[C@H](CC(C)C)NC(=O)CNC1=O [INGAP-19C] (H-CIWIGLHDPSHGTLPNGSGWC-OH; disulfide 1-21)
- Comparative peptide stability in FBS ([2]; RPMI-1640 with 25% FBS): highest stability; also recorded: more stable than linear 15-mer (INGAP-P) or 19-mer (INGAP-19) peptides
- Degradation in presence of serum ([2]; 48 h, 50 μM, RPMI-1640 with 25% FBS): no degradation
- Time stable in culture medium ([2]; culture medium, preliminary HPLC data): up to 48 h
- Presence of peptide in blood serum after injection (HPLC) [3]: still detectable at 2 h
- Losses of animals in group [4]: 1

Molecule: CC[C@H](C)[C@@H]1NC(=O)[C@@H](N)CSSC[C@@H](C(=O)O)NC(=O)[C@H](CO)NC(=O)CNC(=O)[C@H](CC(N)=O)NC(=O)[C@@H]2CCCN2C(=O)[C@H](CC(C)C)NC(=O)[C@H]([C@@H](C)O)NC(=O)CNC(=O)[C@H](Cc2c[nH]cn2)NC(=O)[C@H](CO)NC(=O)[C@@H]2CCCN2C(=O)[C@H](CC(=O)O)NC(=O)[C@H](Cc2c[nH]cn2)NC(=O)[C@H](CC(C)C)NC(=O)CNC1=O [INGAP-PC, N′-CIGLHDPSHGTLPNGSC-C′] (H-CIGLHDPSHGTLPNGSC-OH; disulfide 1-17)
- half-life ([2]; buffer, culture medium, preliminary HPLC data): 4 to 6 h
- Losses of animals in group [4]: no losses

Molecule: COc1cccc(-c2cc(=O)c3ccccc3o2)c1N [PD98059]
- Effect of inhibitor on INGAP-induced Erk½ phosphorylation (Erk½): inhibition
- Effect of inhibitor on BrdU incorporation induced by growth factors (RIN-m5F cells [1]): inhibition

Molecule: CC(C)(C)n1nc(-c2ccc(Cl)cc2)c2c(N)ncnc21 [PP2]
- Effect of inhibitor on INGAP-induced Erk½ phosphorylation (Erk½): inhibited both Erk½ phosphorylation (FIG. 8B) and proliferation (FIG. 16) stimulated by r-INGAP, but not by INGAP-P
- Effect of inhibitor on BrdU incorporation induced by growth factors (RIN-m5F cells [1]): inhibited both Erk½ phosphorylation (FIG. 8B) and proliferation (FIG. 16) stimulated by r-INGAP, but not by INGAP-P

Molecule: Nc1ncnc2c1ncn2C1CCCO1 (stereo not drawn) [SQ22536]
- Effect of inhibitor on INGAP-induced Erk½ phosphorylation (Erk½): slightly increased it

Molecule: EGF: positive control growth factor, signals through a classical RTK pathway
- BrdU incorporation, increase compared to negative control (RIN-m5F cells [5]; 10 ng/ml): 1.49 ×
- Akt phosphorylation (Akt): early activation of Akt

Molecule: Exendin 4
- BrdU incorporation, increase compared to negative control (RIN-m5F cells [5]; 10 nM): 1.56 ×
- Akt phosphorylation (Akt): strongest activation of Akt

Molecule: IGLHDPSHGTLPNGS [INGAP-P, N′-IGLHDPSHGTLPNGS-C′]
- Comparative peptide stability in FBS ([2]; RPMI-1640 with 25% FBS): degraded at a similar rate
- half-life at 50 μM ([2]; culture medium (RPMI-1640) with 25% fetal bovine serum, culture medium, preliminary HPLC data): 4 to 6 h

Molecule: IWIGLHDPSHGTLPNGSGW [INGAP-19, N′-IWIGLHDPSHGTLPNGSGW-C′]
- Comparative peptide stability in FBS ([2]; RPMI-1640 with 25% FBS): no advantage of INGAP-19 over INGAP-P
- half-life at 50 μM ([2]; fetal bovine serum (25%) in RPMI-1640 culture medium, culture medium, preliminary HPLC data): 4 to 6 h
- Presence of peptide in blood serum after injection (HPLC) [3]: undetectable at 1 h

Molecule: Pertussis toxin [Ptx]
- Inhibition of INGAP-induced activation of Erk½ (Erk½; 24 h exposure to inhibitor, 10 min INGAP): 40%

— patent publication US20160002310A1, “MODIFIED INGAP PEPTIDES FOR TREATING DIABETES” (THE ROYAL INSTITUTE FOR THE ADVANCEMENT OF LEARNING/MCGILL …, priority 2013, published 2016)
